Data published in patent US9371358B2 (priority 2010, dated 2016).
Read-outs that look alike come from different tables or passages of the source.

What was measured:
[1] = tested on: Human prostate cancer cell line (PC-3); assay: MTT cell proliferation assay, cytotoxicity and GI50, PC-3; conditions: read-out: Cytotoxic activity (GI50 Values) PC-3
Description: Cell Culture and Cytotoxicity:
(§1) Human prostate cancer cell line (PC-3) and human colon cancer cell line (HT-29) were obtained from the German Collection of Microorganisms. All cell lines were cultivated under conditions recommended by their respective depositors. […] For PC-3 cell lines 500 cells per well and for HT-29 cell lines 1500-2000 cells per well were seeded overnight into 96-well cell culture plates (TPP, Trasadingen, Switzerland) and exposed to serial dilutions of each inhibitor for 3 days. Formazan salt formation was measured at 490 nm using an enzyme-linked immunosorbent assay (ELISA) reader (DYNEX technologies MRX TC II). From each compound four independent replicates were prepared.

[2] = tested on: human colon cancer cell line (HT-29); assay: MTT cell proliferation assay, cytotoxicity and GI50, HT-29; conditions: read-out: Cytotoxic activity (GI50 Values) HT-29
Description: Cell Culture and Cytotoxicity:
as §1

Row | Structure (SMILES) | GI50 ([1]; Homo sapiens, PC-3, 72 h) | GI50 ([2]; Homo sapiens, HT-29, 72 h) | GI50 ([1]; PC-3 cells, exposed 3 days, MTT, four independent replicates) | GI50 ([2]; HT-29 cells, exposed 3 days, MTT, four independent replicates)
1 | CC(=O)O[C@H]1C(=O)[C@@]2(C)[C@H]([C@H](OC(=O)c3ccccc3)[C@]3(O)C[C@H](OC(=O)[C@H](O)[C@@H](NC(=O)c4ccccc4)c4ccccc4)C(C)=C1C3(C)C)[C@]1(OC(C)=O)CO[C@@H]1C[C@@H]2O [taxol, reference compound] | 7.2 nM | 5.3 nM | – | –
2 | CCCCNC(=O)CN(C(=O)[C@@H](NC(=O)[C@H]1CCCCN1C)[C@@H](C)CC)[C@H](C[C@@H](OC(C)=O)c1nc(C(=O)N[C@@H](Cc2ccccc2)C[C@H](C)C(=O)O)cs1)C(C)C [tubugi A] | 0.23 nM | 0.14 nM | – | –
3 | CC[C@H](C)[C@H](NC(=O)[C@H]1CCCCN1C)C(=O)N(CC(=O)NC(C)C)[C@H](C[C@@H](OC(C)=O)c1nc(C(=O)N[C@@H](Cc2ccccc2)C[C@H](C)C(=O)O)cs1)C(C)C [tubugi B] | 0.29 nM | 0.34 nM | – | –
4 | CCCCNC(=O)C(C)N(C(=O)[C@@H](NC(=O)[C@H]1CCCCN1C)[C@@H](C)CC)[C@H](C[C@@H](OC(C)=O)c1nc(C(=O)N[C@@H](Cc2ccccc2)C[C@H](C)C(=O)O)cs1)C(C)C (stereo partly shown) [tubugi D] | 0.22 nM | 0.56 nM | – | –
5 | CC[C@H](C)[C@H](NC(=O)[C@H]1CCCCN1C)C(=O)N(COC(=O)CC(C)C)[C@H](C[C@@H](OC(C)=O)c1nc(C(=O)N[C@@H](Cc2ccc(O)cc2)C[C@H](C)C(=O)O)cs1)C(C)C [tubulysin A, reference compound] | – | – | 0.21 nM | 0.32 nM
